# According to US12129265B2, “Therapeutic agents and uses thereof” (Ankh Life Sciences Limited, priority 2020, dated 2024):
# Read-outs that look alike come from different tables or passages of the source.
# How the values were obtained:
# Assay in all cases: CellTiter-Glo in vitro cell proliferation assay, Example 8
# SU-DHL-4 cells = format: cell-based; details: Homo sapiens, SU-DHL-4, Diffuse Large B-Cell Lymphoma
# Procedure: (§1) In this Example, in vitro cell proliferation assays were performed using: (1) Human Myeloma tumor cell lines; (2) Human Lymphoma tumor cell lines; (3) Solid Human tumor cell lines; and (4) Parental, Lenalidomide resistant and Bortezomib resistant Jeko-1 Mantle cell Lymphoma tumor cell lines. The compounds tested were three diharmaline compounds, namely the 518B562 (or simply 562), 560, and 561 compounds. In addition, a monoharmaline product designated as 518F014 was also tested. This monoharmaline product had the following structure:
# (§2) Each proliferation assay was carried out as follows. The test cells were plated in growth media using a 384-well microtiter plate at 50 μL volume. The cells were incubated for 24 hours at 37° C. in a humidified incubator. After 24 hours of incubation, the test compounds were added to the test wells in DSMO solvent, at concentrations ranging from 0.0075-100 μM. Control wells received equal volumes of DSMO, without compound. Following drugging, the cells were incubated for 72 hours at 37° C. in a humidified incubator. After this exposure, 100 μL of a 1:1 mixture of sterile water and CellTiter-Glo® reagent (Promega) was added to each well. The plates were then incubated for 60 minutes at room temperature, followed by recording the luminescence value of each well using a luminometer as a measure of cell proliferation.
# N87 cells = format: cell-based; details: Homo sapiens, N87, Gastric
# Procedure: as §1, §2
# SU-DHL-6 cells = format: cell-based; details: Homo sapiens, SU-DHL-6, Diffuse Large B-Cell Lymphoma
# Procedure: as §1, §2
# RXF-393 cells = format: cell-based; details: Homo sapiens
# Procedure: as §1, §2
# KMM-1 cells = format: cell-based, Human
# Outline: (§3)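 Seeded cells, pre-cultured for 24 h, are treated with compound from 0.0075 to 100 μM in DMSO for 72 h. The luminometer signal of CellTiter-Glo, developed 60 min at room temperature, indicates proliferation.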
# MDA-MB-468 cells = format: cell-based, Human; details: Homo sapiens, MDA-MB-468, Triple Negative Breast
# Outline: as §3
# FaDu cells = format: cell-based, Human; details: Homo sapiens
# Outline: as §3
# HEC-1a cells = format: cell-based, Human; details: Homo sapiens
# Outline: as §3
# H1975 (EGFR mut) cells = format: cell-based, Human; details: Homo sapiens
# Outline: as §3
# MM.1s cells = format: cell-based, Human; details: MM1.S
# Outline: as §3
# HCC70 cells = format: cell-based, Human; details: Homo sapiens, HCC70, Triple Negative Breast
# Outline: as §3
# MOLP-8 cells = format: cell-based, Human
# Outline: as §3
# KMS-27 cells = format: cell-based, Human
# Outline: as §3
# A498 cells = format: cell-based, Human; details: Homo sapiens
# Outline: as §3
# A2780CP cells = format: cell-based, Human; details: Homo sapiens, A2780C/P
# Outline: as §3
# KHM-1B cells = format: cell-based, Human
# Outline: as §3
# H1650 (EGFR mut) cells = format: cell-based, Human; details: Homo sapiens
# Outline: as §3
# OCI-LY3 cells = format: cell-based, Human; details: Homo sapiens, OCI-LY3, Diffuse Large B-Cell Lymphoma
# Outline: as §3
# L363 cells = format: cell-based, Human; details: L-363
# Outline: as §3
# KMS-11 cells = format: cell-based, Human
# Outline: as §3
# DOHH-2 cells = format: cell-based, Human; details: Homo sapiens, DOHH-2, Diffuse Large B-Cell Lymphoma
# Outline: as §3
# H929 cells = format: cell-based, Human; details: NCI-H929
# Outline: as §3
# A2780 cells = format: cell-based, Human; details: Homo sapiens, A2780, Ovarian
# Outline: as §3
# AN3CA cells = format: cell-based, Human; details: Homo sapiens, AN3-CA
# Outline: as §3
# [1] = Endometrial, 72 hours, read-out: Mean IC50
# [2] = Example 24, Endometrial, read-out: Mean
# [3] = Example 24, Endometrial, read-out: Trial A
# [4] = Example 24, Endometrial, read-out: Trial B
compound,measurement,setting,value
COc1ccc2c3c([nH]c2c1)C(CC(CC1=NCCc2c1[nH]c1cc(OC)ccc21)c1ccccc1)=NCC3 [compound 560],IC50,"SU-DHL-4 cells; 72 hours, read-out: Mean IC50",3.68 µM
same,IC50,"N87 cells; 72 hours, read-out: Mean IC50",3.71 µM
same,IC50,"SU-DHL-6 cells; 72 hours, read-out: Mean IC50",3.52 µM
same,IC50,"RXF-393 cells; RXF-393, Renal, 72 hours, read-out: Mean IC50",5.4 µM
same,IC50,"KMM-1 cells; KMM-1, Human Myeloma, 72 hours, read-out: Mean IC50",5.3 µM
same,IC50,"MDA-MB-468 cells; 72 hours, read-out: Mean IC50",3.75 µM
same,IC50,"FaDu cells; Squamous, 72 hours, read-out: Mean IC50",2.05 µM
same,IC50,HEC-1a cells; [1],5.1 µM
same,IC50,"H1975 (EGFR mut) cells; NCI-H1975, Non Small Cell Lung, 72 hours, read-out: Mean IC50",4.27 µM
same,IC50,"MM.1s cells; MM.IS, Human Myeloma, 72 hours, read-out: Mean IC50",2.26 µM
same,IC50,"HCC70 cells; 72 hours, read-out: Mean IC50",5.94 µM
same,IC50,"MOLP-8 cells; MOLP-8, Human Myeloma, 72 hours, read-out: Mean IC50",2.89 µM
same,IC50,"KMS-27 cells; KMS-27, Human Myeloma, 72 hours, read-out: Mean IC50",3.94 µM
same,IC50,"A498 cells; A498, Renal, 72 hours, read-out: Mean IC50",3.34 µM
same,IC50,"A2780CP cells; Ovarian, 72 hours, read-out: Mean IC50",4.4 µM
same,IC50,"KHM-1B cells; Human Myeloma, 72 hours, read-out: Mean IC50",7.58 µM
same,IC50,"H1650 (EGFR mut) cells; NCI-H1650, Non Small Cell Lung, 72 hours, read-out: Mean IC50",2.95 µM
same,IC50,"OCI-LY3 cells; 72 hours, read-out: Mean IC50",2.87 µM
same,IC50,"L363 cells; L363, Human Myeloma, 72 hours, read-out: Mean IC50",5.27 µM
same,IC50,"KMS-11 cells; KMS-11, Human Myeloma, 72 hours, read-out: Mean IC50",4.95 µM
same,IC50,"DOHH-2 cells; 72 hours, read-out: Mean IC50",6.39 µM
same,IC50,"H929 cells; H929, Human Myeloma, 72 hours, read-out: Mean IC50",4.3 µM
same,IC50,"A2780 cells; 72 hours, read-out: Mean IC50",2.03 µM
same,IC50,AN3CA cells; [1],2.71 µM
"COc1ccc2c3c([nH]c2c1)C(CC(CC1=NCCc2c1[nH]c1cc(OC)ccc21)c1cccc(Oc2ccccc2)c1)=NCC3 [compound 594, diharmaline 3-phenoxybenzaldehyde]",IC50,"SU-DHL-4 cells; Example 24, read-out: Mean",2.73 µg/mL
same,IC50,"SU-DHL-4 cells; Example 24, read-out: Trial A",2.77 µg/mL
same,IC50,"SU-DHL-4 cells; Example 24, read-out: Trial B",2.7 µg/mL
same,IC50,"N87 cells; Example 24, read-out: Mean",4.26 µg/mL
same,IC50,"N87 cells; Example 24, read-out: Trial A",3.48 µg/mL
same,IC50,"N87 cells; Example 24, read-out: Trial B",5.04 µg/mL
same,IC50,"SU-DHL-6 cells; Example 24, read-out: Mean",2.36 µg/mL
same,IC50,"SU-DHL-6 cells; Example 24, read-out: Trial A",2.48 µg/mL
same,IC50,"SU-DHL-6 cells; Example 24, read-out: Trial B",2.23 µg/mL
same,IC50,"RXF-393 cells; Example 24, RXF-393, RCC, read-out: Mean",3.16 µg/mL
same,IC50,"RXF-393 cells; Example 24, RXF-393, RCC, read-out: Trial A",3.16 µg/mL
same,IC50,"RXF-393 cells; Example 24, RXF-393, RCC, read-out: Trial B",3.16 µg/mL
same,IC50,"KMM-1 cells; Example 24, KMM-1, human myeloma, read-out: Mean",2.57 µg/mL
same,IC50,"KMM-1 cells; Example 24, KMM-1, human myeloma, read-out: Trial A",2.53 µg/mL
same,IC50,"KMM-1 cells; Example 24, KMM-1, human myeloma, read-out: Trial B",2.61 µg/mL
same,IC50,"MDA-MB-468 cells; Example 24, read-out: Mean",2.79 µg/mL
same,IC50,"MDA-MB-468 cells; Example 24, read-out: Trial A",2.9 µg/mL
same,IC50,"MDA-MB-468 cells; Example 24, read-out: Trial B",2.68 µg/mL
same,IC50,"FaDu cells; Example 24, Squamous, read-out: Mean",4.62 µg/mL
same,IC50,"FaDu cells; Example 24, Squamous, read-out: Trial A",3.78 µg/mL
same,IC50,"FaDu cells; Example 24, Squamous, read-out: Trial B",5.45 µg/mL
same,IC50,HEC-1a cells; [2],3.29 µg/mL
same,IC50,HEC-1a cells; [3],3.15 µg/mL
same,IC50,HEC-1a cells; [4],3.42 µg/mL
same,IC50,"H1975 (EGFR mut) cells; NCI-H1975, Example 24, Non Small Cell Lung, read-out: Mean",2.9 µg/mL
same,IC50,"H1975 (EGFR mut) cells; NCI-H1975, Example 24, Non Small Cell Lung, read-out: Trial A",2.92 µg/mL
same,IC50,"H1975 (EGFR mut) cells; NCI-H1975, Example 24, Non Small Cell Lung, read-out: Trial B",2.87 µg/mL
same,IC50,"MM.1s cells; Example 24, MM.1S, human myeloma, read-out: Mean",2.57 µg/mL
same,IC50,"MM.1s cells; Example 24, MM.1S, human myeloma, read-out: Trial A",2.48 µg/mL
same,IC50,"MM.1s cells; Example 24, MM.1S, human myeloma, read-out: Trial B",2.66 µg/mL
same,IC50,"HCC70 cells; Example 24, read-out: Mean",6.87 µg/mL
same,IC50,"HCC70 cells; Example 24, read-out: Trial A",6.15 µg/mL
same,IC50,"HCC70 cells; Example 24, read-out: Trial B",7.59 µg/mL
same,IC50,"MOLP-8 cells; Example 24, MOLP-8, human myeloma, read-out: Mean",2.72 µg/mL
same,IC50,"MOLP-8 cells; Example 24, MOLP-8, human myeloma, read-out: Trial A",2.73 µg/mL
same,IC50,"MOLP-8 cells; Example 24, MOLP-8, human myeloma, read-out: Trial B",2.7 µg/mL
same,IC50,"KMS-27 cells; Example 24, KMS-27, human myeloma, read-out: Mean",4.14 µg/mL
same,IC50,"KMS-27 cells; Example 24, KMS-27, human myeloma, read-out: Trial A",5.54 µg/mL
same,IC50,"KMS-27 cells; Example 24, KMS-27, human myeloma, read-out: Trial B",2.73 µg/mL
same,IC50,"A498 cells; Example 24, A498, RCC, read-out: Mean",4.69 µg/mL
same,IC50,"A498 cells; Example 24, A498, RCC, read-out: Trial A",4.82 µg/mL
same,IC50,"A498 cells; Example 24, A498, RCC, read-out: Trial B",4.56 µg/mL
same,IC50,"A2780CP cells; Example 24, Ovarian, read-out: Mean",3.27 µg/mL
same,IC50,"A2780CP cells; Example 24, Ovarian, read-out: Trial A",3.57 µg/mL
same,IC50,"A2780CP cells; Example 24, Ovarian, read-out: Trial B",2.96 µg/mL
same,IC50,"KHM-1B cells; Example 24, human myeloma, read-out: Mean",6.65 µg/mL
same,IC50,"KHM-1B cells; Example 24, human myeloma, read-out: Trial A",6.48 µg/mL
same,IC50,"KHM-1B cells; Example 24, human myeloma, read-out: Trial B",6.81 µg/mL
same,IC50,"H1650 (EGFR mut) cells; NCI-H1650, Example 24, Non Small Cell Lung, read-out: Mean",2.58 µg/mL
same,IC50,"H1650 (EGFR mut) cells; NCI-H1650, Example 24, Non Small Cell Lung, read-out: Trial A",2.61 µg/mL
same,IC50,"H1650 (EGFR mut) cells; NCI-H1650, Example 24, Non Small Cell Lung, read-out: Trial B",2.55 µg/mL
same,IC50,"OCI-LY3 cells; Example 24, read-out: Mean",5.7 µg/mL
same,IC50,"OCI-LY3 cells; Example 24, read-out: Trial A",3.87 µg/mL
same,IC50,"OCI-LY3 cells; Example 24, read-out: Trial B",7.54 µg/mL
same,IC50,"L363 cells; Example 24, L363, human myeloma, read-out: Mean",3.64 µg/mL
same,IC50,"L363 cells; Example 24, L363, human myeloma, read-out: Trial A",3.67 µg/mL
same,IC50,"L363 cells; Example 24, L363, human myeloma, read-out: Trial B",3.6 µg/mL
same,IC50,"KMS-11 cells; Example 24, KMS-11, human myeloma, read-out: Mean",6.04 µg/mL
same,IC50,"KMS-11 cells; Example 24, KMS-11, human myeloma, read-out: Trial A",6.43 µg/mL
same,IC50,"KMS-11 cells; Example 24, KMS-11, human myeloma, read-out: Trial B",5.64 µg/mL
same,IC50,"DOHH-2 cells; Example 24, read-out: Mean",2.64 µg/mL
same,IC50,"DOHH-2 cells; Example 24, read-out: Trial A",2.58 µg/mL
same,IC50,"DOHH-2 cells; Example 24, read-out: Trial B",2.71 µg/mL
same,IC50,"H929 cells; Example 24, H929, human myeloma, read-out: Mean",5.96 µg/mL
same,IC50,"H929 cells; Example 24, H929, human myeloma, read-out: Trial A",6.5 µg/mL
same,IC50,"H929 cells; Example 24, H929, human myeloma, read-out: Trial B",5.42 µg/mL
same,IC50,"A2780 cells; Example 24, read-out: Mean",2.58 µg/mL
same,IC50,"A2780 cells; Example 24, read-out: Trial A",2.67 µg/mL
same,IC50,"A2780 cells; Example 24, read-out: Trial B",2.49 µg/mL
same,IC50,AN3CA cells; [2],2.79 µg/mL
same,IC50,AN3CA cells; [3],2.79 µg/mL
same,IC50,AN3CA cells; [4],2.8 µg/mL
